From US10329289B2, “6,7-dihydro-5H-pyrrolo[3,4-B]pyridin-5-one allosteric modulators of the M4 muscarinic acetylcholine receptor” (Merck Sharp & Dohme Corp., priority 2015, dated 2019)

target: T1, human M4 muscarinic acetylcholine receptor (Homo sapiens, UniProt P08173); assay: human FLIPR-based M4 PAM assay (Ca2+ mobilization, CHO-K1 cells with human M4 receptor and Gαqi5); type: cell-based; details: acetylcholine at 20% of maximum response, read-out: M4 PAM IP
T1 construct: expressed in transfected cells; host or cells: CHO-K1
T1 sequence (P08173 1-479): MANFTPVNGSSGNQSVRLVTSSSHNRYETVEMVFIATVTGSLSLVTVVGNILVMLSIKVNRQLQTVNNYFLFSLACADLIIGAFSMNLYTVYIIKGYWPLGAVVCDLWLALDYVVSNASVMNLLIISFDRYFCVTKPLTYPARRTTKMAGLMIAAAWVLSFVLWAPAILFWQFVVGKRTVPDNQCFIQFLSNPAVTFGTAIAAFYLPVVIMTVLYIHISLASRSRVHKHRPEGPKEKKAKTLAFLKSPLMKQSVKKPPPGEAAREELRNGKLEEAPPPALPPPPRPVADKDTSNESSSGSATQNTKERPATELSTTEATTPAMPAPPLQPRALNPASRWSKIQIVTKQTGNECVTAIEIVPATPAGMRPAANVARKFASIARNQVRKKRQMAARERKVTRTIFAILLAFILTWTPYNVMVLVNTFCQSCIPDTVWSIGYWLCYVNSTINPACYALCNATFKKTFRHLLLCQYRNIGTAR
How it was run: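 Calcium-mobilization (FLIPR) readout in dye-loaded CHO-K1 cells co-expressing human M4 receptor and Gαqi5. Potentiation measured against acetylcholine at a concentration giving 20% of maximal response, with an optional 70% addition; the reported value is the curve inflection point from a 4-parameter logistic fit.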

Compound	EC50 [nM]
Cc1cc2c(nc1N1CCC(Oc3cccc(C=O)c3)CC1)CNC2=O [Example 308, 3-((1-(3-Methyl-5-oxo-6,7-dihydro-5H-pyrrolo[3,4-b]pyridin-2-yl)piperidin-4-yl)oxy)benzaldehyde]	176
Cc1cc2c(nc1N1CCC(Oc3cccc(CO)c3)CC1)CNC2=O [Example 309, 2-(4-(3-(Hydroxymethyl)phenoxy)piperidin-1-yl)-3-methyl-6,7-dihydro-5H-pyrrolo[3,4-b]pyridin-5-one]	47
COc1ccc(OC2CCN(c3nc4c(cc3C)C(=O)N(CC(N)=O)C4)CC2)cn1 [Example 310, 2-(2-(4-((6-methoxypyridin-3-yl)oxy)piperidin-1-yl)-3-methyl-5-oxo-5,7-dihydro-6H-pyrrolo[3,4-b]pyridin-6-yl)acetamide]	101
Cc1cc2c(nc1N1CCC(OCC3CC3(C)C)CC1)CNC2=O (centres unmarked) [Example 311, 2-(4-((2,2-Dimethylcyclopropyl)methoxy)piperidin-1-yl)-3-methyl-6,7-dihydro-5H-pyrrolo[3,4-b]pyridin-5-one]	686
Cc1cc2c(nc1N1CCC(OCC3(CO)CC3)CC1)CNC2=O [Example 312, 2-(4-((1-(hydroxymethyl)cyclopropyl)methoxy)piperidin-1-yl)-3-methyl-6,7-dihydro-5H-pyrrolo[3,4-b]pyridin-5-one]	651
Cc1cc2c(nc1N1CCC(Oc3ccc4[nH]nc(Cl)c4c3)CC1)CNC2=O [Example 313, 2-(4-((3-Chloro-1H-indazol-5-yl)ox)piperidin-1-yl)-3-methyl-6,7-dihydro-5H-pyrrolo[3,4-b]pyridin-5-one]	30
Cc1cc2c(nc1N1CCC(Oc3ccc4[nH]ncc4c3Cl)CC1)CNC2=O [Example 314, 2-(4-((4-Chloro-1H-indazol-5-yl)ox)piperidin-1-yl)-3-methyl-6,7-dihydro-5H-pyrrolo[3,4-b]pyridin-5-one]	676
Cc1cc2c(nc1N1CCC(Oc3ccc4[nH]nc(Br)c4c3)CC1)CNC2=O [Example 315, 2-(4-((3-bromo-1H-indazol-5-yl)oxy)piperidin-1-yl)-3-methyl-6,7-dihydro-5H-pyrrolo[3,4-b]pyridin-5-one]	80
Cc1cc2c(nc1N1CCC(Oc3ccc4[nH]nc(C#N)c4c3)CC1)CNC2=O [Example 316, 5-((1-(3-Methyl-5-oxo-6,7-dihydro-5H-pyrrolo[3,4-b]pyridin-2-yl)piperidin-4-yl)oxy)-1H-indazole-3-carbonitrile]	198
Cc1cc2c(nc1N1CCC(Oc3cc(F)c4[nH]ncc4c3)CC1)CNC2=O [Example 317, 2-(4-((7-Fluoro-1H-indazol-5-yl)ox)piperidin-1-yl)-3-methyl-6,7-dihydro-5H-pyrrolo[3,4-b]pyridin-5-one]	125
COc1ccc(OC2CCN(c3nc4c(cc3C)C(=O)N(C[C@@H](O)C(F)(F)F)C4)CC2)cn1 [Example 318, (R)-2-(4-((6-Methoxypyridin-3-yl)oxy)piperidin-1-yl)-3-methyl-6-(3,3,3-trifluoro-2-hydroxypropyl)-6,7-dihydro-5H-pyrrolo[3,4-b]pyridin-5-one]	155
COc1ccc(OC2CCN(c3nc4c(cc3C)C(=O)N(C[C@H](O)C(F)(F)F)C4)CC2)cn1 [Example 319, (S)-2-(4-((6-methoxypyridin-3-yl)oxy)piperidin-1-yl)-3-methyl-6-(3,3,3-trifluoro-2-hydroxypropyl)-6,7-dihydro-5H-pyrrolo[3,4-b] pyridin-5-one]	96
CNc1ccc(OC2CCN(c3nc4c(cc3C)C(=O)NC4)CC2)cn1 [Example 320, 3-Methyl-2-(4-((6-(methylamino)pyridin-3-yl)oxy)piperidin-1-yl)-6,7-dihydro-5H-pyrrolo[3,4-b]pyridin-5-one]	150
Cc1cc2c(nc1N1CCC(Oc3ccc4c(c3)CC(C)(C)O4)CC1)CNC2=O [Example 321, 2-(4-((2,2-Dimethyl-2,3-dihydrobenzofuran-5-yl)oxy)piperidin-1-yl)-3-methyl-6,7-dihydro-5H-pyrrolo[3,4-b]pyridin-5-one]	193
COc1ccc(OC2CCN(c3nc4c(cc3C)C(=O)N(C)C4C(C)(C)O)CC2)cn1 (centres unmarked) [Example 322, 7-(2-Hydroxypropan-2-yl)-2-(4-((6-methoxypyridin-3-yl)oxy)piperidin-1-yl)-3,6-dimethyl-6,7-dihydro-5H-pyrrolo[3,4-b]pyridin-5-one]	499
Cc1cc2c(nc1N1CCC(Oc3ccc4c(c3)CC(O)C4)CC1)CNC2=O (centres unmarked) [Example 324, 2-(4-((2-Hydroxy-2,3-dihydro-1H-inden-5-yl)oxy)piperidin-1-yl)-3-methyl-6,7-dihydro-5H-pyrrolo[3,4-b]pyridin-5-one]	17
Cc1cc2c(nc1N1CCC(Oc3cccc(C#N)c3)CC1)CN(P(=O)(O)O)C2=O [Example 325, Ammonium (2-(4-(3-cyanophenoxy)piperidin-1-yl)-3-methyl-5-oxo-5,7-dihydro-6H-pyrrolo[3,4-b]pyridin-6-yl)phosphonate]	204
Cc1cc2c(nc1N1CCC(Oc3ccc(O)nc3)CC1)CNC2=O [Example 326, 2-(4-((6-Hydroxypyridin-3-yl)ox)piperidin-1-yl)-3-methyl-6,7-dihydro-5H-pyrrolo[3,4-b]pyridin-5-one]	1660
COc1ccc(OC2CCN(c3nc4c(cc3Cl)C(=O)NC4)CC2)cn1 [Example 327, 3-Chloro-2-(4-((6-methoxypyridin-3-yl)ox)piperidin-1-yl)-6,7-dihydro-5H-pyrrolo[3,4-b]pyridin-5-one]	205
Cc1c(N2CCC(Oc3ccc4c(c3)COC4)CC2)nc2c(c1C)C(=O)NC2 [Example 328, 2-(4-((1,3-Dihydro-2-benzofuran-5-yl)oxy)piperidin-1-yl)-3,4-dimethyl-6,7-dihydro-5H-pyrrolo[3,4-b]pyridin-5-one]	61
Cc1c(N2CCC(OCC3CCC3)CC2)nc2c(c1C)C(=O)NC2 [Example 330, 2-(4-(cyclobutylmethoxy)piperidin-1-yl)-3,4-dimethyl-6,7-dihydro-5H-pyrrolo[3,4-b]pyridin-5-one]	51
Cc1c(N2CCC(Oc3cnn(C)c3)CC2)nc2c(c1C)C(=O)NC2 [Example 331, 3,4-dimethyl-2-(4-((1-methyl-1H-pyrazol-4-yl)oxy)piperidin-1-yl)-6,7-dihydro-5H-pyrrolo[3,4-b]pyridin-5-one]	33
Cc1c(N2CCC(Oc3ccc4c(c3)COCC4)CC2)nc2c(c1C)C(=O)NC2 [Example 332, 2-(4-(isochroman-7-yloxy)piperidin-1-yl)-3,4-dimethyl-6,7-dihydro-5H-pyrrolo[3,4-b]pyridin-5-one]	368
Cc1c(N2CCC(Oc3ccc4c(c3)OCC4)CC2)nc2c(c1C)C(=O)NC2 [Example 333, 2-(4-((2,3-dihydrobenzofuran-6-yl)oxy)piperidin-1-yl)-3,4-dimethyl-6,7-dihydro-5H-pyrrolo[3,4-b]pyridin-5-one]	37

Now from value to molecule:

EC50 [nM]	Compound
35	Cc1c(N2CCC(Oc3ccc4c(c3)COC4)CC2)nc2c(c1C)C(=O)N(CC(N)=O)C2 [Example 310A, 2-(2-(4-((1,3-dihydro-2-benzofuran-5-yl)oxy)piperidin-1-yl)-3,4-dimethyl-5-oxo-5,7-dihydro-6H-pyrrolo[3,4-b]pyridin-6-yl)acetamide]
108	Cc1cc2c(nc1N1CCC(Oc3cnn(C4CC4)c3)CC1)CNC2=O [Example 311A, 2-(4-((1-cyclopropyl-1H-pyrazol-4-yl)oxy)piperidin-1-yl)-3-methyl-6,7-dihydro-5H-pyrrolo[3,4-b]pyridin-5-one]
2510	COCCn1cc(OC2CCN(c3nc4c(cc3C)C(=O)NC4)CC2)cn1 [Example 312A, 2-(4-((1-(2-methoxyethyl)-1H-pyrazol-4-yl)oxy)piperidin-1-yl)-3-methyl-6,7-dihydro-5H-pyrrolo[3,4-b]pyridin-5-one]
1120	Cc1cc2c(nc1N1CCC(OCC3(O)CC3)CC1)CNC2=O [Example 312B, 2-(4-((1-hydroxycyclopropyl)methoxy)piperidin-1-yl)-3-methyl-6,7-dihydro-5H-pyrrolo[3,4-b]pyridin-5-one]
434	Cc1cc2c(nc1N1CCC(Oc3cnn(CC4CC4)c3)CC1)CNC2=O [Example 321A, 2-(4-((1-(cyclopropylmethyl)-1H-pyrazol-4-yl)oxy)piperidin-1-yl)-3-methyl-6,7-dihydro-5H-pyrrolo[3,4-b]pyridin-5-one]
91	Cc1cc2c(nc1N1CCC(Oc3ccc4c(c3)CCOCC4)CC1)CNC2=O [Example 321B, 3-methyl-2-(4-((1,2,4,5-tetrahydrobenzo[d]oxepin-7-yl)oxy)piperidin-1-yl)-6,7-dihydro-5H-pyrrolo[3,4-b]pyridin-5-one]
261	COc1ccc(OC2CCN(c3nc4c(cc3C)C(=O)N(C)[C@H]4C(C)(C)O)CC2)cn1 [Example 323A, (R)-7-(2-Hydroxypropan-2-yl)-2-(4-((6-methoxpyridin-3-yl)oxy)piperidin-1-yl)-3,6-dimethyl-6,7-dihydro-5H-pyrrolo[3,4-b]pyridin-5-one]
420	Cc1cc2c(nc1N1CCC(Oc3ccc(NCCO)nc3)CC1)CNC2=O [Example 324E, 2-(4-((6-((2-Hydroxyethyl)amino)pyridin-3-yl)oxy)piperidin-1-yl)-3-methyl-6,7-dihydro-5H-pyrrolo[3,4-b]pyridin-5-one]
